From US20230242530A1, “8-(AZETIDIN-1-YL)-[1,2,4]TRIAZOLO[1,5-A]PYRIDINYL COMPOUNDS, COMPOSITIONS AND METHODS OF USE THEREOF” (Genentech, Inc., priority 2016, published 2023) come the findings set out here.

Assay [1] relates to JAK1-dependent STAT6 phosphorylation downstream of IL-13 stimulation in BEAS-2B cells. Nature of the assay: JAK1 pathway assay in cell lines: IL-13 p-STAT6 BEAS-2B. The format is cell-based. Conditions: BEAS-2B human bronchial epithelial cells, 1 hr compound, IL-13 15 min, MSD readout. The procedure: JAK1 Pathway Assay in Cell Lines was Carried Out as Follows:
Inhibitor potency (EC50) was determined in cell-based assays designed to measure JAK1 dependent STAT phosphorylation. As noted above, inhibition of IL-4, IL-13, and IL-9 signalling by blocking the Jak/Stat signaling pathway can alleviate asthmatic symptoms in pre-clinical lung inflammation models (Mathew et al., 2001, J Exp Med 193(9): 1087-1096; Kudlacz et. al., 2008, Eur J. Pharmacol 582(1-3): 154-161).
In one assay approach, TF-1 human erythroleukemia cells obtained from the American Type Culture Collection (ATCC; Manassas, Va.) were used to measure JAK1-dependent STAT6 phosphorylation downstream of IL-13 stimulation. Prior to use in the assays, TF-1 cells were starved of GM-CSF overnight in OptiMEM medium (Life Technologies, Grand Island, N.Y.) supplemented with 0.5% charcoal/dextran stripped fetal bovine serum (FBS), 0.1 mM non-essential amino acids (NEAA), and 1 mM sodium pyruvate. The assays were run in 384-well plates in serum-free OptiMEM medium using 300,000 cells per well. In a second assay approach, BEAS-2B human bronchial epithelial cells obtained from ATCC were plated at 100,000 cells per well of a 96-well plate one day prior to the experiment. The BEAS-2B assay was run in complete growth medium (bronchial epithelial basal medium plus bulletkit; Lonza; Basel, Switzerland).
Test compounds were serially diluted 1:2 in DMSO and then diluted 1:50 in medium just before use. Diluted compounds were added to the cells, for a final DMSO concentration of 0.2%, and incubated for 30 mi (for the TF-1 assay) or 1 hr (for the BEAS-2B assay) at 37 QC. Then, cells were stimulated with human recombinant cytokine at their respective EC90 concentrations, as previously determined for each individual lot. Cells were stimulated with IL-13 (R&D Systems, Minneapolis, Minn.) for 15 min at 37 °C. The TF-1 cell reactions were stopped by the direct addition of 10× lysis buffer (Cell Signaling Technologies, Danvers, Mass.), whereas the BEAS-2B cell incubations were halted by the removal of medium and addition of 1× lysis buffer. The resultant samples were frozen in the plates at −80 °C. Compound mediated inhibition of STAT6 phosphorylation was measured in the cell lysates using MesoScale Discovery (MSD) technology (Gaithersburg, Md.). EC50 values were determined as the concentration of compound required for 50% inhibition of STAT phosphorylation relative to that measured for the DMSO control.

Assay [2] concerns the target T1, isolated recombinant JAK2 kinase domain (Homo sapiens, UniProt O60674).
T1 construct: isolated recombinant JAK1 and JAK2 kinase domain
Nature of the assay: JAK enzyme assay, JAK2 kinase domain (Caliper LabChip). The format is biochemical. Conditions: 0.2 nM JAK2, ATP 25 μM, Morrison tight binding model. As to the method: (§1) JAK Enzyme Assays were Carried Out as Follows:
(§2) The activity of the isolated recombinant JAK1 and JAK2 kinase domain was measured by monitoring phosphorylation of a peptide derived from JAK3 (Val-Ala-Leu-Val-Asp-Gly-Tyr-Phe-Arg-Leu-Thr-Thr, fluorescently labeled on the N-terminus with 5-carboxyfluorescein) using the Caliper LabChip® technology (Caliper Life Sciences, Hopkinton, Mass.). […] Reactions were incubated at 22 °C in 384-well polypropylene microtiter plates for 30 minutes and then stopped by addition of 25 μL of an EDTA containing solution (100 mM HEPES buffer (pH 7.2), 0.015% Brij-35, 150 mM EDTA), resulting in a final EDTA concentration of 50 mM. After termination of the kinase reaction, the proportion of phosphorylated product was determined as a fraction of total peptide substrate using the Caliper LabChip® 3000 according to the manufacturer's specifications. Ki values were then determined using the Morrison tight binding model (Morrison, J. F., Biochim. Biophys. Acta. 185:269-296 (1969); William, J. W. and Morrison, J. F., Meth. Enzymol., 63:437-467 (1979)) modified for ATP-competitive inhibition [Ki=Ki,app/(1+[ATP]/Km,app)].

Assay [3] deals with T2, isolated recombinant JAK1 kinase domain (Homo sapiens, UniProt P23458).
T2 construct: isolated recombinant JAK1 and JAK2 kinase domain
T2 sequence (P23458 875-1153 limits assumed): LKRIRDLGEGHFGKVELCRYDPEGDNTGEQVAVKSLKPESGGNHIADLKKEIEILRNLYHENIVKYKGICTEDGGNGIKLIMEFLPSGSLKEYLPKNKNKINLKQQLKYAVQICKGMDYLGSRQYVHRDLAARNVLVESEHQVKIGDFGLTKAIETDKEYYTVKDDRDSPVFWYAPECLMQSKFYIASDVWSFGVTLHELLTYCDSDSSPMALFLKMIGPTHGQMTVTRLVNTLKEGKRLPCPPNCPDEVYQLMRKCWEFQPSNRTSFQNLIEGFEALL
Nature of the assay: JAK enzyme assay, JAK1 kinase domain (Caliper LabChip). The format is biochemical. Conditions: 1.5 nM JAK1, ATP 25 μM, Morrison tight binding model. As to the method: as §1, §2

T1 sequence (O60674 849-1124 limits assumed): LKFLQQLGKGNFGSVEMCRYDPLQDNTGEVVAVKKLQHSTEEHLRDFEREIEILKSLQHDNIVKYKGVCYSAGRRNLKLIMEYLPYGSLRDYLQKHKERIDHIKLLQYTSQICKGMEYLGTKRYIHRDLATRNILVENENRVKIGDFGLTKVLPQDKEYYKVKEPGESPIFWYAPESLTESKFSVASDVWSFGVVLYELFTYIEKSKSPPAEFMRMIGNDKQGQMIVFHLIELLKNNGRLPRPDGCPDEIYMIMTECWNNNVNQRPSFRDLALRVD

Usually EC50 stands for the concentration at which the effect is half-maximal. Low values mean a more potent agent, high ones a less potent agent. What is called Ki is a dissociation constant, usually derived from enzyme kinetics or from competition with a known ligand. In assay [1], `CN1CCN(C(=O)Cn2cc(Nc3nc4c(N5CC(CC#N)(n6cc(C(F)(F)F)cn6)C5)cccn4n3)cn2)CC1` [Example 15] had an EC50 of more than 1000 nM. Further, the Ki was 9.4 nM in assay [2] and 2.2 nM in assay [3].

Take `CC(C)Sc1ccc(C2(CC#N)CN(c3cccn4nc(Nc5cnn(CC(=O)N6CCN(C)CC6)c5)nc34)C2)cc1` [Example 16, 2-[3-(4-isopropylsulfanylphenyl)-1-[2-[[1-[2-(4-methylpiperazin-1-yl)-2-oxo-ethyl]pyrazol-4-yl]amino]-[1,2,4]triazolo[1,5-a]pyridin-8-yl]azetidin-3-yl]acetonitrile]: the EC50 in assay [1] was 19 nM. For the same molecule, the Ki amounted to 3.7 nM in assay [2] and 0.6 nM in assay [3].

Molecule `CN1CCN(C(=O)Cn2cc(Nc3nc4c(N5CC(CC#N)(c6ccc(C(F)(F)F)cc6)C5)cccn4n3)cn2)CC1` [Example 17] registered an EC50 in assay [1] of 18 nM. For the same molecule, the Ki in assay [2] was 1.2 nM; in assay [3], 0.3 nM.

As for `CN1CCN(C(=O)Cn2cc(Nc3nc4c(N5CC(CC#N)(n6cccn6)C5)cccn4n3)cn2)CC1` [Example 18], the EC50 in assay [1] is 21 nM. Also, the figures for the Ki in assay [2] and in assay [3] were 1.5 nM and 0.7 nM, respectively.

With `CN1CCN(C(=O)Cn2cc(Nc3nc4c(N5CC(CC#N)(n6cc(F)cn6)C5)cccn4n3)cn2)CC1` [Example 19, 2-[3-(4-fluoropyrazol-1-yl)-1-[2-[[1-[2-(4-methylpiperazin-1-yl)-2-oxo-ethyl]pyrazol-4-yl]amino]-[1,2,4]triazolo[1,5-a]pyridin-8-yl]azetidin-3-yl]acetonitrile], the EC50 in assay [1] is 255 nM. Also, the Ki in assay [2] was determined as 4 nM; in assay [3], 4.4 nM.

The molecule `CN1CCN(C(=O)Cn2cc(Nc3nc4c(N5CC(CC#N)(n6cc(CO)cn6)C5)cccn4n3)cn2)CC1` [Example 20, 2-[3-[4-(hydroxymethyl)pyrazol-1-yl]-1-[2-[[1-[2-(4-methylpiperazin-1-yl)-2-oxo-ethyl]pyrazol-4-yl]amino]-[1,2,4]triazolo[1,5-a]pyridin-8-yl]azetidin-3-yl]acetonitrile] yielded an EC50 in assay [1] of more than 1000 nM. Also, the Ki in assay [2] came to 9.6 nM; in assay [3], 1.2 nM.

`CN1CCN(C(=O)Cn2cc(Nc3nc4c(N5CC(CC#N)(n6cc(-c7ccccc7)cn6)C5)cccn4n3)cn2)CC1` [Example 21, formic acid;2-[1-[2-[[1-[2-(4-methylpiperazin-1-yl)-2-oxo-ethyl]pyrazol-4-yl]amino]-[1,2,4]triazolo[1,5-a]pyridin-8-yl]-3-(4-phenylpyrazol-1-yl)azetidin-3-yl]acetonitrile]: in assay [1], a half-maximal effect (EC50) was put at 43 nM. Also, the inhibition constant Ki in assay [2] stood at 7.7 nM; in assay [3], 1.1 nM.

In assay [1], `CCCc1cnn(C2(CC#N)CN(c3cccn4nc(Nc5cnn(CC(=O)N6CCN(C)CC6)c5)nc34)C2)c1` [Example 22] showed an EC50 of 36 nM. For the same molecule, the values for the Ki in assay [2] and in assay [3] were 3 nM and 1 nM, respectively.

For the molecule `CN1CCN(C(=O)Cn2cc(Nc3nc4c(N5CC(CC#N)(c6ccc(Cl)c(F)c6)C5)cccn4n3)cn2)CC1` [Example 23, 2-[3-(4-chloro-3-fluoro-phenyl)-1-[2-[[1-[2-(4-methylpiperazin-1-yl)-2-oxo-ethyl]pyrazol-4-yl]amino]-[1,2,4]triazolo[1,5-a]pyridin-8-yl]azetidin-3-yl]acetonitrile], the midpoint of the response in assay [1], the EC50, lay at 40 nM. Further, the Ki in assay [2] came out at 6.1 nM; in assay [3], 0.7 nM.

In assay [1], `Cc1cc(Cl)ccc1C1(CC#N)CN(c2cccn3nc(Nc4cnn(CC(=O)N5CCN(C)CC5)c4)nc23)C1` [Example 24, 2-[3-(4-chloro-2-methyl-phenyl)-1-[2-[[1-[2-(4-methylpiperazin-1-yl)-2-oxo-ethyl]pyrazol-4-yl]amino]-[1,2,4]triazolo[1,5-a]pyridin-8-yl]azetidin-3-yl]acetonitrile] registered an EC50 of 87 nM. The Ki turned out to be 2.3 nM in assay [2] and 0.4 nM in assay [3].

For `CN1CCN(C(=O)Cn2cc(Nc3nc4c(N5CC(CC#N)(n6cc(CCO)cn6)C5)cccn4n3)cn2)CC1` [Example 25, 2-[3-[4-(2-hydroxyethyl)pyrazol-1-yl]-1-[2-[[1-[2-(4-methylpiperazin-1-yl)-2-oxo-ethyl]pyrazol-4-yl]amino]-[1,2,4]triazolo[1,5-a]pyridin-8-yl]azetidin-3-yl]acetonitrile], in assay [1], a half-maximal response (EC50) required 137 nM. The Ki turned out to be 2.3 nM in assay [2] and 0.4 nM in assay [3].

Molecule `CN1CCN(C(=O)Cn2cc(Nc3nc4c(N5CC(CC#N)(Cc6ccccc6)C5)cccn4n3)cn2)CC1` [Example 26, 2-[3-benzyl-1-[2-[[1-[2-(4-methylpiperazin-1-yl)-2-oxo-ethyl]pyrazol-4-yl]amino]-[1,2,4]triazolo[1,5-a]pyridin-8-yl]azetidin-3-yl]acetonitrile] had an EC50 in assay [1] of 42 nM. In addition, the Ki came out at 2.1 nM in assay [2] and 0.4 nM in assay [3].

In assay [1], `Cc1cc(C2(CC#N)CN(c3cccn4nc(Nc5cnn(CC(=O)N6CCN(C)CC6)c5)nc34)C2)ccc1Cl` [Example 27, 2-[3-(4-chloro-3-methyl-phenyl)-1-[2-[[1-[2-(4-methylpiperazin-1-yl)-2-oxo-ethyl]pyrazol-4-yl]amino]-[1,2,4]triazolo[1,5-a]pyridin-8-yl]azetidin-3-yl]acetonitrile] registered an EC50 of 51 nM. In addition, the Ki in assay [2] amounted to 1.8 nM; in assay [3] it was 0.5 nM.

`COc1cnn(C2(CC#N)CN(c3cccn4nc(Nc5cnn(CC(=O)N6CCN(C)CC6)c5)nc34)C2)c1` [Example 28, 2-[3-(4-methoxypyrazol-1-yl)-1-[2-[[1-[2-(4-methylpiperazin-1-yl)-2-oxo-ethyl]pyrazol-4-yl]amino]-[1,2,4]triazolo[1,5-a]pyridin-8-yl]azetidin-3-yl]acetonitrile] showed an EC50 in assay [1] of 54 nM. Further, the Ki in assay [2] is 1.4 nM; in assay [3], 0.4 nM.

Molecule `CCc1cnn(C2(CC#N)CN(c3cccn4nc(Nc5cnn(CC(=O)N6CCC(N7CCOCC7)CC6)c5)nc34)C2)c1` [Example 29, 2-[3-(4-ethylpyrazol-1-yl)-1-[2-[[1-[2-(4-morpholino-1-piperidyl)-2-oxo-ethyl]pyrazol-4-yl]amino]-[1,2,4]triazolo[1,5-a]pyridin-8-yl]azetidin-3-yl]acetonitrile] showed an EC50 in assay [1] of 78 nM. In addition, the results for the Ki in assay [2] and in assay [3] were 2.1 nM and 0.6 nM, respectively.

In turn, `CCc1cnn(C2(CC#N)CN(c3cccn4nc(Nc5cnn(CC(=O)N6CCC(NCC(C)(F)F)CC6)c5)nc34)C2)c1` [Example 30, 2-[1-[2-[[1-[2-[4-(2,2-difluoropropylamino)-1-piperidyl]-2-oxo-ethyl]pyrazol-4-yl]amino]-[1,2,4]triazolo[1,5-a]pyridin-8-yl]-3-(4-ethylpyrazol-1-yl)azetidin-3-yl]acetonitrile] showed an EC50 in assay [1] of 104 nM. The Ki in assay [2] came out at 2.7 nM; in assay [3], 0.7 nM.

Consider `CCc1cnn(C2(CC#N)CN(c3cccn4nc(Nc5cnn(CC(=O)N6CCN(C7CCOCC7)CC6)c5)nc34)C2)c1` [Example 31, 2-[3-(4-ethylpyrazol-1-yl)-1-[2-[[1-[2-oxo-2-(4-tetrahydropyran-4-ylpiperazin-1-yl)ethyl]pyrazol-4-yl]amino]-[1,2,4]triazolo[1,5-a]pyridin-8-yl]azetidin-3-yl]acetonitrile], for which a half-maximal effect in assay [1] (EC50) was put at 19 nM. The values for the Ki in assay [2] and in assay [3] were 1.1 nM and 0.4 nM, respectively.
